Results on one compound are retold here after patent US20070111929A1, “Methods for the treatment of anxiety and for identification of anxiolytic agents” (Wyeth, priority 2005, published 2007).

One experiment addresses T1, AT4 receptor (Mus musculus, UniProt Q8C129).
T1 construct: from tissue; host or cells: whole living Swiss Webster mouse (in vivo behavioural test)
T1 sequence (Q8C129 1-1025): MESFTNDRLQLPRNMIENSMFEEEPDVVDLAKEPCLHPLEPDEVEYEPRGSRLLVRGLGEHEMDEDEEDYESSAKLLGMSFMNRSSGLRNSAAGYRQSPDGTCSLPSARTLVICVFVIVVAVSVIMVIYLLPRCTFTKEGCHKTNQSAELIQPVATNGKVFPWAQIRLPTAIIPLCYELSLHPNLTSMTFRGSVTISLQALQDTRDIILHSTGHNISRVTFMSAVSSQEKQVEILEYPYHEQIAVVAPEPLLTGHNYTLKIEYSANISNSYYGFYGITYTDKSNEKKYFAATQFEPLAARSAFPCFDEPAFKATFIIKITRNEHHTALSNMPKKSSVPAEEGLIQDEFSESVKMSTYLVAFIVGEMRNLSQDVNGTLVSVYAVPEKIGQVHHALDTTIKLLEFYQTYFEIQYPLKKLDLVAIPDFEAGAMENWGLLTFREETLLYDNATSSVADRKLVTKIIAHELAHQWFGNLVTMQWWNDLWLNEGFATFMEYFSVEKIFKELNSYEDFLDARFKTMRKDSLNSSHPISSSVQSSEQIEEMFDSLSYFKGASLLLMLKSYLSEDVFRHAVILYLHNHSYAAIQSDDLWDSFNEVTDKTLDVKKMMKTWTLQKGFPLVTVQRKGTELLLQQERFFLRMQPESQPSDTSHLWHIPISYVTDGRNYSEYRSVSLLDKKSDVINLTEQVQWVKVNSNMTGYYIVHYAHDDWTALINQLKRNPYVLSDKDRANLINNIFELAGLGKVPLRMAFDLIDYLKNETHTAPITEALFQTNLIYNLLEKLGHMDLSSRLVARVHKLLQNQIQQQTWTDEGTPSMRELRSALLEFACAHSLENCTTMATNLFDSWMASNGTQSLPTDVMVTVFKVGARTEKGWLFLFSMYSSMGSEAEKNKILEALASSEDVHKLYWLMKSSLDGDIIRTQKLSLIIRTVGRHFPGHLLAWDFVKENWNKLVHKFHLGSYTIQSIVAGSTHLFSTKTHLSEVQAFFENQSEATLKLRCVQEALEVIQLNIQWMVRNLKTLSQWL
Briefly: mouse 4-plate model of anxiety, AT4 alone (Example 1). The class given is in vivo. The note with it: acute; for number of punished crossings compared to vehicle: subcutaneous, 30 min before test, male Swiss Webster mice. On the procedure:
Male Swiss Webster mice weighing 18-24 g were used in the 4 plate studies. Animals were housed in groups of 15 in an AAALAC-accredited facility (Wyeth Research, Princeton, N.J.) with food and water available ad libitum. Animals were maintained on a 12-hour light/dark cycle (lights on at 0600) with all studies performed during the light phase. On the day of experiments, mice were injected with AT4 (0, 1, 3 and 10 mg/kg) 30 minutes before the start of the study. Initially, mice were individually placed in a plexiglass cage (18×25×16 cm) with a floor consisting of four rectangular metal plates (8×11 cm), which are wired to a shock generator (Med Associates). In each experiment, mice were placed into the chamber and given an 18-sec habituation period, which was followed by a 1-min test session. After the habituation period, an electric shock (0.8 mA) was delivered for 3.0 sec when mice crossed from one plate to another. The crossing from one plate to the next is referred to as a “punished crossing.” The number of punished crossings during a 1-min test period was recorded by a computer. The mean number of punished crossings for each group was expressed as a percentage of the value observed in the control animals. Data were subjected to an overall one-way analysis of variance (ANOVA) and post-hoc comparisons were made by a contrast using least squares. Significant differences in treatment occurred when p<0.05 compared to vehicle.

In another experiment the target is T2, oxytocin receptor (Mus musculus, UniProt P97926).
T2 construct: from tissue; host or cells: whole living Swiss Webster mouse (in vivo behavioural test)
T2 sequence (P97926 1-388): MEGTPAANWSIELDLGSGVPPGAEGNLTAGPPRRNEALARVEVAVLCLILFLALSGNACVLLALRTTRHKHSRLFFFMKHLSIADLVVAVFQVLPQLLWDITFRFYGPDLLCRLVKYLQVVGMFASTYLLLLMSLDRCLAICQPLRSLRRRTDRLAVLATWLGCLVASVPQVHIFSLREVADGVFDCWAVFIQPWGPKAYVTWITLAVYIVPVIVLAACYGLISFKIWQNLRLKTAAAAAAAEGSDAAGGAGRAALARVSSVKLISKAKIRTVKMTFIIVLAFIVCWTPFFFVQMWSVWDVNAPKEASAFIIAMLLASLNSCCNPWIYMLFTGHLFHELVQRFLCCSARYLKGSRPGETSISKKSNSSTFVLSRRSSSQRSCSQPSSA
As to the kind of experiment: mouse 4-plate model, AT4 with the oxytocin receptor antagonist WAY-162720 (Example 2). The class given is in vivo. The note with it: AT4 3 mg/kg alone, acute, 30 min before test.

Description for oxytocin receptor: Male Swiss Webster mice weighing 18-24 g were used in the 4 plate studies. […] Animals were maintained on a 12-hour light/dark cycle (lights on at 0600) with all studies performed during the light phase. On the day of experiments, mice were injected with AT4 (0, 1, 3 and 10 mg/kg) 30 minutes before the start of the study. Initially, mice were individually placed in a plexiglass cage (18×25×16 cm) with a floor consisting of four rectangular metal plates (8×11 cm), which are wired to a shock generator (Med Associates). In each experiment, mice were placed into the chamber and given an 18-sec habituation period, which was followed by a 1-min test session. After the habituation period, an electric shock (0.8 mA) was delivered for 3.0 sec when mice crossed from one plate to another. The crossing from one plate to the next is referred to as a “punished crossing.” The number of punished crossings during a 1-min test period was recorded by a computer. […] Data were subjected to an overall one-way analysis of variance (ANOVA) and post-hoc comparisons were made by a contrast using least squares. Significant differences in treatment occurred when p<0.05 compared to vehicle.
For these studies, the same 4-plate procedures were used as described in Example 1, above. […] A 3-sec time followed the delivery of each shock and a computer recorded the number of punished crossings during a 1-min test period. […]

Turning to `CC[C@H](C)[C@H](NC(=O)[C@H](Cc1ccc(O)cc1)NC(=O)[C@@H](N)C(C)C)C(=O)N[C@@H](Cc1cnc[nH]1)C(=O)N1CCC[C@H]1C(=O)N[C@@H](Cc1ccccc1)C(=O)O` [AT4, Val-Tyr-Ile-His-Pro-Phe], the “number of punished crossings compared to vehicle” value on AT4 receptor (AT4 3 mg/kg) and at AT4 receptor (AT4 10 mg/kg) was “significantly (p<0.05) increased” in each case. For the same compound, the “anxiolytic-like effect in the 4-plate model, dose dependence” value on AT4 receptor (AT4 1, 3 and 10 mg/kg subcutaneous, FIG. 1) was “dose-dependent”. Besides, the “number of punished crossings compared to vehicle control” value on oxytocin receptor is given as “increased”.
